Several values for one entry are separate records, joined by “and”; a condition that tells them apart may be missing. Equal entries are not always repeated. Activity calls are given as the source filed them. The calls were made as follows: active = viability on the fitted dose curve at most 10% of control; inactive = the rest.
System: HSSY-II tumor spheroid viability
Assay: Anticancer human tumor HSSY-II cell line growth inhibition;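 as to IC50: spheroids exposed to compounds for seven days before reading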;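 as to viability, T/C: spheroids exposed to compounds for seven days before reading; percent of DMSO vehicle control viability so 100% = untreated level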
Details: spheroids with HUVEC and MSC; for viability, T/C: stronger effect = lower value
Method in brief: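 Complex spheroids of malignant cells with endothelial cells and mesenchymal stem cells; agents alone or combined, from near clinical Cmax (or 10 microM if unknown) down in half-log steps, 0.25% DMSO final.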

[1] = curve of first compound, second compound 30 pM
[2] = curve of first compound, second compound 94.9 pM
[3] = curve of first compound, second compound 0.0003 µM
[4] = curve of first compound, second compound 0.000949 µM
[5] = curve of first compound, second compound 0.003 µM

Structure (SMILES): Cc1sc2c(c1C)C(c1ccc(Cl)cc1)=NC(CC(=O)Nc1ccc(O)cc1)c1nnc(C)n1-2 (stereo unspecified) + COc1cc2c(cc1O)CCNC21CSC2c3c(OC(C)=O)c(C)c4c(c3C(COC1=O)N1C(O)C3Cc5cc(C)c(OC)c(O)c5C(C21)N3C)OCO4
- IC50 [1]: 108 nM
- IC50 [2]: 54 nM
- IC50 [3]: < 9.49 nM
- IC50 [4]: < 9.49 nM
- IC50 [5]: < 9.49 nM
- viability, T/C (second compound 30 pM, first compound 0.00949 µM): 84.8%
- viability, T/C (second compound 30 pM, first compound 0.03 µM): 78.4%
- viability, T/C (second compound 30 pM, first compound 0.0949 µM): 53.1%
- viability, T/C (second compound 30 pM, first compound 0.3 µM): 23.3%
- viability, T/C (second compound 30 pM, first compound 0.949 µM): 14.2%
- viability, T/C (second compound 30 pM, first compound 3 µM): 7.89%
- viability, T/C (second compound 94.9 pM, first compound 0.00949 µM): 76.4%
- viability, T/C (second compound 94.9 pM, first compound 0.03 µM): 60.5%
- viability, T/C (second compound 94.9 pM, first compound 0.0949 µM): 40.5%
- viability, T/C (second compound 94.9 pM, first compound 0.3 µM): 19.5%
- viability, T/C (second compound 94.9 pM, first compound 0.949 µM): 11.1%
- viability, T/C (second compound 94.9 pM, first compound 3 µM): 4.34%
- viability, T/C (second compound 0.0003 µM, first compound 0.00949 µM): 11.4%
- viability, T/C (second compound 0.0003 µM, first compound 0.03 µM): 13.4%
- viability, T/C (second compound 0.0003 µM, first compound 0.0949 µM): 10.5%
- viability, T/C (second compound 0.0003 µM, first compound 0.3 µM): 4.16%
- viability, T/C (second compound 0.0003 µM, first compound 0.949 µM): 1.76%
- viability, T/C (second compound 0.0003 µM, first compound 3 µM): 0.21%
- outcome (second compound 0.000949 µM, first compound 0.00949 µM): active
- viability, T/C (second compound 0.000949 µM, first compound 0.03 µM): 1.98%
- outcome (second compound 0.000949 µM, first compound 0.0949 µM): active
- viability, T/C (second compound 0.000949 µM, first compound 0.3 µM): 0.18%
- viability, T/C (second compound 0.000949 µM, first compound 0.949 µM): 0.05%
- viability, T/C (second compound 0.000949 µM, first compound 3 µM): 0.12%
- viability, T/C (second compound 0.003 µM, first compound 0.00949 µM): 0.14%
- viability, T/C (second compound 0.003 µM, first compound 0.03 µM): 0.14%
- viability, T/C (second compound 0.003 µM, first compound 0.0949 µM): 0.17%
- viability, T/C (second compound 0.003 µM, first compound 0.3 µM): 0.17%
- viability, T/C (second compound 0.003 µM, first compound 0.949 µM): 0.14%
- viability, T/C (second compound 0.003 µM, first compound 3 µM): 0.27%

Structure (SMILES): CC1COCCN1c1cc(-c2ccnn2C)c2ccnc(-c3ccn[nH]3)c2n1 (stereo unspecified) + COc1cc2c(cc1O)CCNC21CSC2c3c(OC(C)=O)c(C)c4c(c3C(COC1=O)N1C(O)C3Cc5cc(C)c(OC)c(O)c5C(C21)N3C)OCO4
- IC50 [1]: < 31.6 nM
- IC50 [2]: < 31.6 nM
- IC50 [3]: < 31.6 nM
- IC50 [4]: < 31.6 nM
- IC50 [5]: < 31.6 nM
- viability, T/C (second compound 30 pM, first compound 0.0316 µM): 14.4%
- viability, T/C (second compound 30 pM, first compound 0.1 µM): 6.1%
- viability, T/C (second compound 30 pM, first compound 0.316 µM): 4.22%
- viability, T/C (second compound 30 pM, first compound 1 µM): 3.28%
- viability, T/C (second compound 30 pM, first compound 3.16 µM): 3.45%
- viability, T/C (second compound 30 pM, first compound 10 µM): 5.25%
- viability, T/C (second compound 94.9 pM, first compound 0.0316 µM): 8.99%
- viability, T/C (second compound 94.9 pM, first compound 0.1 µM): 6.52%
- viability, T/C (second compound 94.9 pM, first compound 0.316 µM): 3.33%
- viability, T/C (second compound 94.9 pM, first compound 1 µM): 2.89%
- viability, T/C (second compound 94.9 pM, first compound 3.16 µM): 3.13%
- viability, T/C (second compound 94.9 pM, first compound 10 µM): 4.37%
- viability, T/C (second compound 0.0003 µM, first compound 0.0316 µM): 5.86%
- viability, T/C (second compound 0.0003 µM, first compound 0.1 µM): 5.4%
- viability, T/C (second compound 0.0003 µM, first compound 0.316 µM): 3.44%
- viability, T/C (second compound 0.0003 µM, first compound 1 µM): 2.22%
- viability, T/C (second compound 0.0003 µM, first compound 3.16 µM): 1.93%
- viability, T/C (second compound 0.0003 µM, first compound 10 µM): 2.79%
- viability, T/C (second compound 0.000949 µM, first compound 0.0316 µM): 2.32%
- viability, T/C (second compound 0.000949 µM, first compound 0.1 µM): 1.87%
- viability, T/C (second compound 0.000949 µM, first compound 0.316 µM): 1.51%
- viability, T/C (second compound 0.000949 µM, first compound 1 µM): 0.74%
- viability, T/C (second compound 0.000949 µM, first compound 3.16 µM): 0.11%
- viability, T/C (second compound 0.000949 µM, first compound 10 µM): 0.34%
- viability, T/C (second compound 0.003 µM, first compound 0.0316 µM): 0.49%
- viability, T/C (second compound 0.003 µM, first compound 0.1 µM): 0.59%
- viability, T/C (second compound 0.003 µM, first compound 0.316 µM): 0.48%
- viability, T/C (second compound 0.003 µM, first compound 1 µM): 0.35%
- viability, T/C (second compound 0.003 µM, first compound 3.16 µM): 0.32%
- viability, T/C (second compound 0.003 µM, first compound 10 µM): 0.51%

Structure (SMILES): O=C(c1cc(Cc2n[nH]c(=O)c3ccccc23)ccc1F)N1CCN(C(=O)C2CC2)CC1
- viability, T/C (compound 0.0949 µM): 99.1% and 104% and 93.2%
- viability, T/C (compound 0.3 µM): 91.7% and 90.6% and 98.3%
- viability, T/C (compound 0.949 µM): 82.3% and 86.8% and 90.7%
- viability, T/C (compound 3 µM): 70.6% and 67.4% and 65.8%
- viability, T/C (compound 9.49 µM): 30.7% and 11.5% and 17.9%
- IC50 (curve of compound): 6160 nM and 4280 nM and 4380 nM

From PubChem BioAssay AID1845204 (Molecular Pharmacology Branch, DTP, NCI, 2023)
